Each structure is given as a SMILES string. A value given as a limit tells only on which side of the number the result lay.

Data set [1] can be described thus: Solubility in aqueous buffer. The data set is classed as physicochemical. The note with it: insoluble above this concentration, read-out: solubility limit in aqueous buffer.
Data set [2] relates to anti-ANEC-BSA serum. Description: Inhibition ELISA, anti-ANEC-BSA serum on ANEC-BSA coated wells. The data set is classed as binding, rabbit. The settings on record: anti ANEC-BSA sera.

For `CCn1c2ccccc2c2cc(N)ccc21` [3-amino-N-ethyl-carbazole, 3-amino-N-ethylcarbazole], the solubility in data set [1] was not above 1000 µM. Further, the IC50 in data set [2] (free hapten as inhibitor, read-out: concentration giving 50% inhibition of antibody binding) stood at 10 µM. For the same compound, the “inhibition of antibody binding” value in data set [2] (free hapten at 1 mM) amounted to 70%.

These data come from patent publication US4835258A, “Conjugation of aromatic amines or nitro-containing compounds with proteins or polypeptides by photoirradiation of the azide derivatives with ultraviolet light in order to produce antibodies against the haptens” (Northwestsern University, priority 1986, dated 1989).
